Test results: patent US5750354A, “Lipoxin transport system and uses therefor” (priority 1994, dated 1998)
Values joined by “and” are separate entries in the source; they are usually repeats but may differ in a detail not shown here. Equal values may be shown once. “Also recorded” adds a separate entry of the source. Read-outs that look alike come from different tables or passages of the source.

How the values were obtained:
lipoxin transport system [1] = experiment: [3H]LXA4 influx into human neutrophils (unidirectional tracer flux); details: for initial [3H]LXA4 influx rate in presence of drug: 5 nM LXA4; for effect on uptake of [3H]LXA4: each at 0.2-0.5 mM; for [3H]LXA4 Influx in presence of eicosanoid / IC50: uptake at 10 and 20 min; for IC50: read-out: K0.5, concentration at which 50% of lipoxin transport is inhibited, drug 0-500 μM, Michaelis-Menten inhibition kinetics
[2] = molecular target: T1, specific lipoxin receptors (Homo sapiens, UniProt P25090); experiment: [3H]LXA4 ligand binding to human neutrophils
T1 sequence (P25090 1-351): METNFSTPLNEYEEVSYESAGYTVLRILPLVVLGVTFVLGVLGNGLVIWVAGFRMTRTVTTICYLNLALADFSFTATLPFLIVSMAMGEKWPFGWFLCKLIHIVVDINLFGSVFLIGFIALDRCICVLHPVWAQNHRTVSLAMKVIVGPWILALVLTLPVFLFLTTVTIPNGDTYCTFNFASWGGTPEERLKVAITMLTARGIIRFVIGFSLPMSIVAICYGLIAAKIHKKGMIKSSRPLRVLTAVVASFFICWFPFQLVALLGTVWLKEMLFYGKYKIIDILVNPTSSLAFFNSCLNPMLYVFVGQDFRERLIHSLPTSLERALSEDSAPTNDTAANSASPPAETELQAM
Description: (§1) Influx rates were calculated by fitting the data points to a single exponential equation (Eq. 1). Results have been taken from three experiments based upon duplicate determinations. […] Specific binding was taken as the difference between total and non-specific binding. […] Results are from three separate experiments, each performed in triplicate.

lipoxin transport system [3] = details: not told
human neutrophils [4] = experiment: [3H]LXA4 methyl ester influx into human neutrophils; type: cell-based; details: for effect of drugs on [3H]LXA4 ME influx: DISA 0.5 mM, PCP 0.4 mM, mersalyl 0.5 mM
Description: Incubations were performed at 37° C. in capped, plastic tubes (Falcon Plastics, Oxnard, Calif.) under various experimental conditions (neutrophils 15-20×10^6 /ml). […] At stated intervals, duplicate aliquots of the cell suspensions were layered onto 0.5 ml of silicone oil (Versilube F-5, General Electric Corp., Waterford, N.Y.) contained in 1.5 ml plastic tubes and centrifuged for 1 min at 8,000 g in a microcentrifuge (Beckman Instruments, Fullerton, Calif.).
The aqueous and oil phases were aspirated and discarded. […] Influx is expressed here as fmol/10^6 cells/min whereas flux rates in all previous work from our laboratory (L.S.) have been reported in meq/liter of cell water.min.
as §1

human neutrophils [5] = tested on: human neutrophils
lipoxin transport system [6] = experiment: Irreversible inhibition of [3H]LXA4 influx after pretreatment of neutrophils with sulfhydryl-reactive agents; type: cell-based, human
[7] = combined: 0.5 mM DISA, 0.4 mM PCP, pHo 8.40
[8] = combined: 0.5 mM mersalyl, pHo 6.40

CCCCCCCCCCCCCC(=O)O[C@@H]1[C@@H](C)[C@@]2(O)[C@@H](C=C(CO)C[C@@]3(O)C(=O)C(C)=C[C@@H]23)[C@@H]2C(C)(C)[C@]12OC(C)=O [4-α-PMA]
effect on lipoxin uptake (lipoxin transport system [1]; biologically inactive isomer of PMA): no effect

CCCCCCCCCCCCCC(=O)O[C@@H]1[C@@H](C)[C@@]2(O)[C@@H](C=C(CO)C[C@]3(O)C(=O)C(C)=C[C@@H]23)[C@@H]2C(C)(C)[C@]12OC(C)=O [PMA, phorbol myristate acetate]
increase in initial rate of [3H]LXA4 influx (lipoxin transport system [1]; 100 nM): ~ 4 fold

N#CC(=Cc1cn(-c2ccccc2)c2ccccc12)C(=O)O [UK-5099, α-cyano-β-(1-phenylindol-3-yl)acrylic acid]
inhibition of [3H]LXA4 influx (lipoxin transport system [1]; 0.2 mM drug): 95%
initial [3H]LXA4 influx rate in presence of drug (lipoxin transport system [1]; 0.2 mM drug): 0.030±0.009 fmol/10^6 cells/min
effect on uptake of [3H]LXA4 (lipoxin transport system [1]): inhibited the uptake
effect on binding of lipoxin to specific receptors [2]: not inhibitable

CCCCC/C=C\C[C@@H](O)/C=C/C=C/C=C\[C@@H](O)CCCC(=O)O [LTB4, (5S,12R)-dihydroxy-6,14-cis-8,10-trans-eicosatetraenoic acid]
transport by the lipoxin transport system (lipoxin transport system [3]): not transported
[3H]LXA4 Influx in presence of eicosanoid (lipoxin transport system [1]; eicosanoid 10 nM): 0.67 ± 0.04 fmol/10^6 cells/min
[3H]LXA4 Influx in presence of eicosanoid (lipoxin transport system [1]; eicosanoid 30 nM): 0.64 ± 0.04 fmol/10^6 cells/min
[3H]LXA4 Influx in presence of eicosanoid (lipoxin transport system [1]; eicosanoid 100 nM): 0.70 ± 0.06 fmol/10^6 cells/min

O=C(O)CI [iodoacetate, iodoacetic acid]
effect of SH-reactive compounds on [3H]LXA4 influx (lipoxin transport system [1]; 1 mM NEM, 0.4 mM iodoacetate): lacked efficacy; also recorded: do not inhibit

CNc1ccc2oc(C[C@H]3O[C@@]4(CC[C@H]3C)O[C@H]([C@H](C)C(=O)c3ccc[nH]3)[C@H](C)C[C@H]4C)nc2c1C(=O)O [A23187]
enhancement of lipoxin uptake (lipoxin transport system [1]; 1 μM): ~ 1.5 fold

CCCCC[C@H](O)/C=C/C=C\C=C\C=C\[C@@H](O)[C@@H](O)CCCC(=O)OC [LXA4 ME, lipoxin A4 methyl ester]
[3H]LXA4 ME Influx (human neutrophils [4]; Medium, 5 nM, 37° C., 15 s intervals through 1 min): 535±136 fmol/10^6 cells/min
influx rate relative to LXA4 free acid (human neutrophils [4]; medium alone): 1,000 fold faster
[3H]LXA4 ME Influx (human neutrophils [4]; pHo 6.40): 465 ± 45 fmol/10^6 cells/min
[3H]LXA4 ME Influx (human neutrophils [4]; pHo 8.40): 553 ± 129 fmol/10^6 cells/min

CCCCC[C@H](O)/C=C/[C@H]1[C@H](O)CC(=O)[C@@H]1C/C=C\CCCC(=O)O [PGE2, prostaglandin E2]
[3H]LXA4 Influx in presence of eicosanoid (lipoxin transport system [1]; eicosanoid 10 nM): 0.58 ± 0.03 fmol/10^6 cells/min
[3H]LXA4 Influx in presence of eicosanoid (lipoxin transport system [1]; eicosanoid 30 nM): 0.59 ± 0.03 fmol/10^6 cells/min
[3H]LXA4 Influx in presence of eicosanoid (lipoxin transport system [1]; eicosanoid 100 nM): 0.60 ± 0.03 fmol/10^6 cells/min

CCCCC[C@H](O)/C=C/C=C\C/C=C\C/C=C\CCCC(=O)O [15-HETE, (15S)-hydroxy-5,8,11-cis-13-trans-eicosatetraenoic acid]
[3H]LXA4 Influx in presence of eicosanoid (lipoxin transport system [1]; eicosanoid 10 nM): 0.73 ± 0.05 fmol/10^6 cells/min
[3H]LXA4 Influx in presence of eicosanoid (lipoxin transport system [1]; eicosanoid 30 nM): 0.69 ± 0.05 fmol/10^6 cells/min
[3H]LXA4 Influx in presence of eicosanoid (lipoxin transport system [1]; eicosanoid 100 nM): 0.71 ± 0.06 fmol/10^6 cells/min

O=C(O)c1ccccc1Nc1ccccc1 [diphenylamine-2-carboxylate, diphenylamine-2-carboxylic acid]
inhibition of [3H]LXA4 influx (lipoxin transport system [1]; 0.5 mM drug): > 85%

O=C(O)c1cccnc1Nc1cccc(C(F)(F)F)c1 [niflumate, niflumic acid]
inhibition of [3H]LXA4 influx (lipoxin transport system [1]; 0.2 mM drug): > 85%

Oc1c(Cl)c(Cl)c(Cl)c(Cl)c1Cl [PCP, pentachlorophenol]
inhibition of [3H]LXA4 influx (lipoxin transport system [1]; 0.4 mM drug): 97% and > 80%
initial [3H]LXA4 influx rate in presence of drug (lipoxin transport system [1]; 0.4 mM drug): 0.015±0.004 fmol/10^6 cells/min
effect on uptake of [3H]LXA4 (lipoxin transport system [1]): inhibited the uptake
IC50 (lipoxin transport system [1]): 25 ± 5 µM
[3H]LXA4 Binding, non-specific, in presence of drug [2]: 0.36 ± 0.04 fmol/10^6 cells
[3H]LXA4 Binding, total, in presence of drug [2]: 1.18 ± 0.04 fmol/10^6 cells
effect on binding of lipoxin to specific receptors [2]: not inhibitable
efflux final value (relative cell content, combined data set) (human neutrophils [5]; [7]): 0.46±0.02
efflux rate coefficient (combined data set) (human neutrophils [5]; [7]): 0.098 ± 0.008 min⁻¹
[3H]LXA4 ME Influx in presence of drug (human neutrophils [4]; 0.4 mM drug): 439 ± 63 fmol/10^6 cells/min
effect of drugs on [3H]LXA4 ME influx (human neutrophils [4]): completely resistant

COC(CNC(=O)c1ccccc1OCC(=O)O)[CH2][Hg][OH] (centres unmarked) [mersalyl]
% Inhibition of Transport (irreversible) (lipoxin transport system [6]): ~ 65% and 67 ± 5%
inhibition of [3H]LXA4 influx (lipoxin transport system [1]; 0.5 mM drug): 82% and > 80%
initial [3H]LXA4 influx rate in presence of drug (lipoxin transport system [1]; 0.5 mM drug): 0.10±0.01 fmol/10^6 cells/min
effect on uptake of [3H]LXA4 (lipoxin transport system [1]): inhibited the uptake
IC50 (lipoxin transport system [1]): 112 ± 33 µM
effect on binding of lipoxin to specific receptors [2]: not inhibitable
[3H]LXA4 Binding, non-specific, in presence of drug ([2]; 0.5 mM drug, + unlabeled LXA4 0.3 μM): 0.39 ± 0.03 fmol/10^6 cells
[3H]LXA4 Binding, total, in presence of drug ([2]; 0.5 mM drug, no unlabeled LXA4): 1.13 ± 0.05 fmol/10^6 cells
efflux final value (relative cell content, combined data) (human neutrophils [5]; [8]): 0.56±0.03
efflux rate coefficient (combined data) (human neutrophils [5]; [8]): 0.079 ± 0.012 min⁻¹
[3H]LXA4 ME Influx in presence of drug (human neutrophils [4]; 0.5 mM drug): 500 ± 184 fmol/10^6 cells/min
effect of drugs on [3H]LXA4 ME influx (human neutrophils [4]): completely resistant

CCCCC/C=C\C/C=C\C/C=C\C/C=C\CCCC(=O)O [Arachidonic Acid, arachidonic acid]
[3H]LXA4 Influx in presence of eicosanoid (lipoxin transport system [1]; eicosanoid 10 nM): 0.69 ± 0.03 fmol/10^6 cells/min
[3H]LXA4 Influx in presence of eicosanoid (lipoxin transport system [1]; eicosanoid 30 nM): 0.66 ± 0.02 fmol/10^6 cells/min
[3H]LXA4 Influx in presence of eicosanoid (lipoxin transport system [1]; eicosanoid 100 nM): 0.70 ± 0.02 fmol/10^6 cells/min

O=C1OC2(c3ccc(N4C(=O)C=CC4=O)cc31)c1cc(Br)c(O)c(Br)c1Oc1c2cc(Br)c(O)c1Br [Eosin-5-maleimide, eosin-5-maleimide]
% Inhibition of Transport (irreversible) (lipoxin transport system [6]; 0.50 mM, pretreatment 30 min at 4° C., washed, influx at 37° C.): 19 ± 6%

CCCCC/C=C\C\C=C/C=C/C=C/[C@@H](SC[C@H](NC(=O)CC[C@H](N)C(=O)O)C(=O)NCC(=O)O)[C@@H](O)CCCC(=O)O [LTC4, (5S)-hydroxy-(6R)-S-glutathionyl-7,9-trans-11,14-cis-eicosatetraenoic acid]
transport by the lipoxin transport system (lipoxin transport system [3]): not transported
[3H]LXA4 Influx in presence of eicosanoid (lipoxin transport system [1]; eicosanoid 10 nM): 0.70 ± 0.05 fmol/10^6 cells/min
[3H]LXA4 Influx in presence of eicosanoid (lipoxin transport system [1]; eicosanoid 30 nM): 0.76 ± 0.05 fmol/10^6 cells/min
[3H]LXA4 Influx in presence of eicosanoid (lipoxin transport system [1]; eicosanoid 100 nM): 0.78 ± 0.07 fmol/10^6 cells/min

CCCCC/C=C\C\C=C/C=C/C=C/[C@@H](SC[C@H](N)C(=O)NCC(=O)O)[C@@H](O)CCCC(=O)O [LTD4, (5S)-hydroxy-(6R)-S-cysteinylglycyl-7,9-trans-11,14-ciseicosatetraenoic acid]
transport by the lipoxin transport system (lipoxin transport system [3]): not transported
[3H]LXA4 Influx in presence of eicosanoid (lipoxin transport system [1]; eicosanoid 10 nM): 0.63 ± 0.03 fmol/10^6 cells/min
[3H]LXA4 Influx in presence of eicosanoid (lipoxin transport system [1]; eicosanoid 30 nM): 0.59 ± 0.04 fmol/10^6 cells/min
[3H]LXA4 Influx in presence of eicosanoid (lipoxin transport system [1]; eicosanoid 100 nM): 0.61 ± 0.03 fmol/10^6 cells/min
